Entries after “also recorded” stand apart in the source; their conditions may differ.
Tests used:
[1] = system: senescent cells in tumor tissue; experiment: SA-β-Gal staining of tumor tissues of PC3/PSC27 tumor-bearing mice; assay type: in vivo, mouse; conditions: MIT alone
Experimental: Representative pictures after SA-β-Gal staining. Scale bar, 100 μm.
(§1) In a preclinical treatment trial, subcutaneously transplanted mice were fed with a standard experimental diet, after 2 weeks chemotherapy drugs mitoxantrone (MIT, dose: 0.2 mg/kg) and/or SAE (500 μl, dose: 10 mg/kg) via intraperitoneal administration. The time points were: the former was administrated on the first day of the 3rd, 5th and 7th weeks, and the latter was administrated on the first day of the 5th and 7th weeks. A total of 3 cycles of MIT administration were carried out throughout the course of treatment, and each cycle lasted for 2 weeks. After the course of treatment, mouse tumors were harvested for volume measurement and histological analysis. Each mouse cumulatively received 0.6 mg/kg body weight of MIT and 30 mg/kg body weight of SAE. In order to cause systemic expression of SASP factors induced by chemotherapy, MIT was administered to mice through intravenous infusion according to the above steps and sequence, but the dose was reduced to 0.1 mg/kg body weight/each time (the cumulative dose of MIT received in the whole course of treatment was 0.3 mg/kg body weight) to reduce drug-related toxicity. The chemotherapy experiment ended at the end of the 8th week, and the mice were dissected immediately after sacrifice, and the xenograft tumors were collected and used for pathological system analysis.

SASP factors = experiment: LCM and qRT-PCR of SASP factors in mouse lesions; assay type: in vivo; conditions: after MIT administration
Experimental: The stromal cells and cancer cells were specifically separated by LCM technology, total RNA was prepared and used for SASP expression detection. ^, P>0.05; *, P<0.05; **, P<0.01.
as §1, with “The chemotherapy experiment ended at the end of the 8th week, and the mice were dissected immediately after sacrifice, and the xenograft tumors were collected and used for pathological system analysis.” left out

[2] = system: PC3/PSC27 transplanted tumors; experiment: PC3/PSC27 xenograft tumor volume in NOD/SCID mice; assay type: in vivo, mouse; conditions: for effect on tumors when combined with MIT: combination with MIT vs MIT alone; for effect on tumor volume of chemotherapeutic drug combined with SAE: combination with SAE vs chemotherapeutic drug alone
Experimental: Every two weeks was a dosing cycle, and MIT (mitoxantrone) was intraperitoneally administered to the mice on the first day of the 3rd/5th/7th weeks. From the first day of the 5th week, the mice were intraperitoneally administered with SAE, […]. After the 8-week course of treatment, the mice were dissected for pathological identification and expression analysis.
All experimental mouse experiments were carried out in strict accordance with the relevant regulations of the Institutional Animal Care and Use Committee (IACUC), Shanghai Institutes for Biological Sciences, Chinese Academy of Sciences. Immuno-deficient mice (NOD-SCID mice, ICR) (body weight about 25 g) aged 6-8 weeks were used for animal experiments related to the present patent. Stromal cells PSC27 and epithelial cells PC3 were mixed at a predetermined ratio of 1:4, and each graft contained 1.25×10^6 cells for tissue remodeling. The xenograft tumors were implanted into mice by subcutaneous transplantation, and the animals were euthanized 8 weeks after the end of the transplantation surgery. Tumor volume was calculated according to the following formula: V=(π/6)×((1+w)/2)3 (V, volume; l, length; w, width).
as §1

PC3/PSC27 tumors = experiment: DNA damage and apoptosis in tumors of treated mice; assay type: in vivo, mouse; conditions: single agent compared with placebo, 7 days after first SAE administration
Text: To investigate mechanisms directly supporting this senescence-associated pattern with expression and reversal of SASP in MIT-administered mice, the inventors dissected tumors in animals treated with both drugs 7 days after the first SAE administration, and the time point of 7 days after administration was selected mainly because drug-resistant clones had not yet formed in cancer cells in the lesion at this time. […] As supporting evidence, when SAE was applied during treatment, caspase 3 cleavage activity was increased, which was a typical hallmark of apoptosis (FIG. 29).

PSC27 [3] = experiment: BrdU and γH2AX immunofluorescence staining of PSC27 cells after bleomycin; assay type: cell-based, human; conditions: PSC27 treated with bleomycin
Experimental: (§2) To cause cell damage, 50 μg/mL bleomycin (bleomycin, BLEO) was added to the culture medium when PSC27 cells grew to 80% (abbreviated as PSC27-CTRL). After 12 hours of drug treatment, the cells were simply washed 3 times with PBS, left in the culture medium for 7-10 days, and then the subsequent experiments were performed.
For immunofluorescent staining, target cells were pre-seeded on a coverslip for at least 24 h after culture in dishes. After a brief wash, the cells were fixed with 4% paraformaldehyde in PBS for 8 min and blocked with 5% normal goat serum (NGS, Thermo Fisher) for 30 min. Mouse monoclonal antibody-anti-phospho-Histone H2A.X (Ser139) (clone JBW301, Millipore) and mouse monoclonal antibody-anti-BrdU (Cat #347580, BD Biosciences), and secondary antibody Alexa Fluor®488 (or 594)-conjugated F (ab′) 2 were sequentially added to the slides coated with the fixed cells. Nuclei were counterstained with 2 μg/ml of 4′, 6-diamidino-2-phenylindole (DAPI). The most representative image was selected from the three observation fields for data analysis and result display. FV1000 laser scanning confocal microscope (Olympus) was used to acquire confocal fluorescent images of cells.

PSC27 [4] = experiment: SA-β-Gal staining of PSC27 cells (bleomycin-induced senescence, increasing SAE concentration); assay type: cell-based, human; conditions: PSC27 treated with bleomycin 50 μg/ml, vs control cells
Experimental: The P value of positive proportion of cells in these experimental groups for SAE at the concentrations of 100 μM, 200 μM, 400 μM, 800 μM, 1600 μM, 2000 μM and 3000 μM are statistically significant compared with the data at 0 μM.
as §2
Senescence-associated B-galactosidase (SA-β-Gal) staining was performed following a previously reported procedure (Debacq-Chainiaux, et. al., 2009). Briefly, cells in culture dishes were washed with PBS and fixed at room temperature. Cells were fixed in 2% formaldehyde and 0.2% glutaraldehyde for 3 minutes. SA-β-Gal was used for staining with freshly prepared staining solution overnight at 37° C. Images were taken on the next day and the percentage of positive cells per unit area was calculated.

PSC27 [5] = experiment: Caspase 3/7 apoptosis detection in senescent PSC27 cells (IncuCyte); assay type: cell-based, human; conditions: 20 μM QVD-OPh, 200 μM SAE
Experimental: PSC27 cells gradually entered the senescent stage after being treated with BLEO for 12 hours under culture conditions. 200 μM SAE was added to the medium of senescent cells starting from day 7, NucLight Rapid Red reagent was used to label the cells and caspase 3/7 reagent (IncuCyte) was used for apoptosis detection. Caspase 3/7 activity was detected every 4 hours (n=3).
Statistical differences are obtained by two-way ANOVA (Turkey'test).
PSC27 cells were plated in a 96-well dish, and the cells were induced to senescence under 50 μg/ml of BLEO treatment. SAE and ABT263 were added at concentrations of 200 μM and 1.25 μM, respectively. Cell culture medium was supplemented with Incucyte Nuclight fast Red Reagent (Essen Bioscience) and Incucyte C-3/7 Apoptosis Reagent (Essen Bioscience). Representative field of view was selected to take pictures.

Q: What does the source list for O=C1c2c(O)ccc(O)c2C(=O)c2c(NCCNCCO)ccc(NCCNCCO)c21 [MIT, mitoxantrone]?
A: senescent cells in the tumor tissue after MIT administration [1]: induced the appearance of a large number of senescent cells; expression of SASP factors in lesions (mainly stromal cells) (SASP factors): significantly increased; also recorded: significantly elevated expression; reduction in tumor size compared to placebo-treated group ([2]; single agent, end of 8 weeks): 44.1%; degree of DNA damage and apoptosis (PC3/PSC27 tumors): significant increase

Q: O=C(/C=C/c1ccc(O/C(=C\c2ccc(O)c(O)c2)C(=O)O)c(O)c1)OC(Cc1ccc(O)c(O)c1)C(=O)O (stereo not shown) [SAI, salvianolic acid I] was tested. Which “effect on tumors when combined with MIT” value [2] did it give?
A: no significant effects

Q: How did the “effect on tumor volume of chemotherapeutic drug combined with SAE” value [2] turn out when CC(=O)O[C@@]12CO[C@@H]1C[C@H](O)[C@@]1(C)C(=O)[C@H](O)C3=C(C)[C@@H](OC(=O)[C@H](O)[C@@H](NC(=O)OC(C)(C)C)c4ccccc4)C[C@@](O)([C@@H](OC(=O)c4ccccc4)[C@H]21)C3(C)C [DOC, docetaxel] was run?
A: no further tumor shrinkage

Q: And the “tumor volume when chemotherapeutic drug used alone” value [2]?
A: reduce the tumor volume

Q: salvianolic acid J [SAJ] was tested. Which “effect on tumors when combined with MIT” value [2] did it give?
A: no significant effects

Q: For COc1cccc2c1C(=O)c1c(O)c3c(c(O)c1C2=O)C[C@@](O)(C(=O)CO)C[C@@H]3O[C@H]1C[C@H](N)[C@H](O)[C@H](C)O1 [DOX, doxorubicin], which “effect on tumor volume of chemotherapeutic drug combined with SAE” value [2] is on record?
A: roughly repeat the significant effect

Q: Which results are given for CC[C@]1(O)C[C@H]2CN(CCc3c([nH]c4ccccc34)[C@@](C(=O)OC)(c3cc4c(cc3OC)N(C=O)[C@H]3[C@@](O)(C(=O)OC)[C@H](OC(C)=O)[C@]5(CC)C=CCN6CC[C@]43[C@@H]65)C2)C1 [VIN, vincristine]?
A: effect on tumor volume of chemotherapeutic drug combined with SAE [2]: no further tumor shrinkage; tumor volume when chemotherapeutic drug used alone [2]: reduce the tumor volume

Q: Which results are given for bleomycin?
A: BrdU incorporation rate (PSC27 [3]; vs control cells): greatly reduced; DNA damage repair foci (DDR foci) (PSC27 [3]; γH2AX staining): significantly increased; positive rate of senescence-associated β-galactosidase (SA-β-Gal) staining (PSC27 [4]): significant increase; effect on tumor volume of chemotherapeutic drug combined with SAE [2]: roughly repeat the significant effect

Q: CC(C)[C@H](NC(=O)c1ccc2ccccc2n1)C(=O)N[C@@H](CC(=O)O)C(=O)COc1c(F)cccc1F [QVD, reference compound] was tested. Which “effect of pan-caspase inhibitor on killing of senescent cells by SAE” value (PSC27 [5]) did it give?
A: could prevent the killing of senescent cells by SAE
